Data reported in ChEMBL document CHEMBL5576143, “Discovery of CW-3308 as a Potent, Selective, and Orally Efficacious PROTAC Degrader of BRD9” (J Med Chem, 2024).

Tests used:
in vitro [1] = conditions: rat, liver microsomes
in vitro [2] = conditions: human, liver microsomes
[3] = Oral bioavailability in rat at 3 mg/kg; format: ADME, organism-based; conditions: in vivo
[4] = Metabolic stability in dog liver microsome assessed as half-life at 1 uM preincubated for 5 mins followed by NADPH addition and measured upto 60 mins by LC-MS/MS analysis; format: ADME, Canis lupus familiaris; conditions: liver microsomes, time < 65 min
[5] = Metabolic stability in monkey liver microsome assessed as half-life at 1 uM preincubated for 5 mins followed by NADPH addition and measured upto 60 mins by LC-MS/MS analysis; format: ADME, Macaca mulatta; conditions: rhesus monkey, liver microsomes, time < 65 min
in vitro [6] = conditions: mouse, liver microsomes
[7] = Volume of distribution at steady state in rat at 3 mg/kg, po or 1 mg/kg, iv; format: ADME, organism-based; conditions: in vivo
[8] = AUC in rat at 3 mg/kg, po or 1 mg/kg, iv; format: ADME, organism-based; conditions: in vivo
[9] = Half-life in rat at 3 mg/kg, po or 1 mg/kg, iv; format: ADME, organism-based; conditions: in vivo
in vitro [10] = conditions: human, Caco-2
[11] = Cmax in rat at 3 mg/kg, po or 1 mg/kg, iv; format: ADME, organism-based; conditions: in vivo
in vitro [12] = conditions: human, Caco-2; remark: listed apart in the source

Row | half-life at 1 h, 1 µM (in vitro [1]) | half-life at 1 h, 1 µM (in vitro [2]) | bioavailability [3] | half-life at 1 µM [4] | half-life at 1 µM [5] | half-life at 1 h, 1 µM (in vitro [6]) | Vdss [7] | AUC [8] | half-life [9] | Papp B→A at 2 h, 10 µM (in vitro [10]) | Cmax [11] | Papp A→B at 2 h, 10 µM (in vitro [12]) | Structure (SMILES)
1 | > 60 min | > 60 min | 70% | > 60 min | 54 min | > 60 min | 5 L/kg | – | – | – | – | – | CN1Cc2cc3c(cc2C1)C(=O)N(C1CCC(=O)NC1=O)C3=O (centres undefined)
2 | > 60 min | > 60 min | 60% | > 60 min | > 60 min | > 60 min | 2.9 L/kg | 1500 ng·h/mL | 132 min | 6.8 ×10⁻⁶ cm/s | 276 ng/mL | 2.55 ×10⁻⁶ cm/s | CN1Cc2cc3c(cc2C1)C(=O)N(C1CCC(=O)NC1=O)C3 (centres undefined)
